31 molecules from US6699887B2, “Anti-HIV pyrazole derivatives” (Hoffmann-La Roche Inc., priority 2000, dated 2004) can be followed below.

One assay concerns HXB2-strain of HIV. Description: Antiviral assay: protection of HIV-infected MT4 cells from cell death (MTT). In kind it is cell-based. Conditions: Human immunodeficiency virus 1, 120 h; MT4 cells infected with HXB2-strain of HIV, 5 days, MTT viability. As for the experimental part: Anti-HIV antiviral activity was assessed using an adaptation of the method of Pauwels et al. {Pauwels et al., 1988, J Virol Methods 20:309-321}. The method is based on the ability of compounds to protect HIV-infected T lymphoblastoid cells (MT4 cells) from cell-death mediated by the infection. The endpoint of the assay was calculated as the concentration of compound at which the cell viability of the culture was preserved by 50% (‘50% inhibitory concentration’, IC50). The cell viability of a culture was determined by the uptake of soluble, yellow 3-[4,5-dimethylthiazol-2-yl]-2,5-diphenyltetrazolium bromide (MTT) and its reduction to a purple insoluble formazan salt. After solubilization, spectrophotometric methods were employed to measure the amount of formazan product.
MT4 cells were prepared to be in logarithmic-phase growth and a total of 2×10^6 cells infected with the HXB2-strain of HIV at a multiplicity of 0.0001 infectious units of virus per cell in a total volume of between 200-500 microliters. The cells were incubated with virus for one hour at 37° C. before removal of virus. The cells are then washed in 0.01 M phosphate buffered saline, pH 7.2 before being resuspensed in culture medium for incubation in culture with serial dilutions of test compound. The culture medium used was RPMI 1640 without phenol red, supplemented with penicillin, streptomycin, L-glutamine and 10% fetal calf serum (GM10).
Test compounds were prepared as 2 mM solutions in dimethyl sulphoxide (DMSO). Four replicate, serial 2-fold dilutions in GM10 were then prepared and 50 microliters amounts placed in 96-well plates over a final nanomolar concentration range of 625-1.22. Fifty microliters GM10 and 3.5×10^4 infected cells were then added to each well. Control cultures containing no cells (blank), uninfected cells (100% viability; 4 replicates) and infected cells without compound (total virus-mediated cell death; 4 replicates) were also prepared. The cultures were then incubated at 37° C. in a humidified atmosphere of 5% CO2 in air for 5 days.
A fresh solution of 5 mg/mL MTT was prepared in 0.01 M phosphate buffered saline, pH 7.2 and 20 microliters added to each culture. The cultures were further incubated as before for 2 hours. They were then mixed by pipetting up and down and 170 microliters of Triton X-100 in acidified isopropanol (10% v/v Triton X-100 in 1:250 mixture of concentrated HCl in isopropanol). When the formazan deposit was fully solubilized by further mixing, the absorbance (OD) of the cultures was measured at 540 nm and 690 nm wavelength (690 nm readings were used as blanks for artefacts between wells). The percent protection for each treated culture was then calculated from the equation: [formula]
The IC50 can be obtained from graph plots of percent protection versus log10 drug concentration.

The target of a further assay is HIV-1 RT (Human immunodeficiency virus type 1 group M subtype B, UniProt P04585). In words: HIV-1 Reverse Transcriptase Assay: Inhibitor IC50 Determination. In kind it is biochemical. The note with it: purified recombinant enzyme, poly(rA)/oligo(dT)16 template-primer, 37° C. 30 min. As for the experimental part:
Assay Method: HIV-1 Reverse Transcriptase Assay: Inhibitor IC50 Determination:
HIV-1 RT assay was carried out in 96-well Millipore filtermat NOB50 plates using purified recombinant enzyme and a poly(rA)/oligo(dT)16 template-primer in a total volume of 50 μL. The assay constituents were 50 mM Tris/HCl, 50 mM NaCl, 1 mM EDTA, 6 mM MgCl2, 5 μM dTTP, 0.1 μCi [^3H] dTTP, 5 μg/ml poly (rA) pre annealed to 2.5 μg/ml oligo (dT)16 and a range of inhibitor concentrations in a final concentration of 10% DMSO. Reactions were initiated by adding 5 nM HIV-1 RT and after incubation at 37° C. for 30 min, they were stopped by the addition of 50 μl ice cold 20%TCA and allowed to precipitate at 4° C. for 30 min. The precipitates were collected by applying vacuum to the plate and sequentially washing with 2×200 μl of 10% TCA and 2×200 μl 70% ethanol. Finally the plates were dried and radioactivity counted in a Wallac Microbeta 1450 after the addition of 15 μl scintillation fluid per well. IC50's were calculated by plotting % inhibition versus log10 inhibitor concentrations.

On to `Cc1nn(C(C)C)c(Sc2cc(Cl)cc(Cl)c2)c1Cc1cnccn1`, for which the figures for the IC50 with HXB2-strain of HIV and at HIV-1 RT were 13.9 nM and 270 nM, respectively.
`Cc1nn(C(C)C)c(Sc2cc(Cl)cc(Cl)c2)c1Cc1cccnc1`: the half-maximal inhibitory concentration (IC50) in the assay on HXB2-strain of HIV was found to be 14.6 nM; on HIV-1 RT, 572 nM.
Regarding `Cc1nn(-c2ccccc2)c(Sc2cc(Cl)cc(Cl)c2)c1Cc1ccccc1`, the results for the concentration for half-maximal inhibition (IC50) with HXB2-strain of HIV and on HIV-1 RT were 403 nM and 2060 nM, respectively.
Take `CCn1nc(COC)c(Cc2ccccc2)c1Sc1cc(Cl)cc(Cl)c1`: the 50% inhibitory concentration (IC50) in the assay with HXB2-strain of HIV is 453 nM; on HIV-1 RT, 8040 nM.
In the case of `Cc1cc(C)cc(Sc2c(Cc3ccncc3Cl)c(C)nn2C(C)C)c1`, the concentration for half-maximal inhibition (IC50) at HIV-1 RT is 607 nM.
`Cc1nn(C(C)C)c(Sc2cc(Cl)cc(Cl)c2)c1COc1cncc(Cl)c1`: the concentration for half-maximal inhibition (IC50) with HXB2-strain of HIV is 203 nM; at HIV-1 RT, 650 nM.
On to `Cc1nn(C(C)C)c(Sc2cc(Cl)cc(Cl)c2)c1COc1ccncc1`, for which the figures for the IC50 with HXB2-strain of HIV and on HIV-1 RT were 20 nM and 252 nM, respectively.
For `COc1cc(Cl)cc(Sc2c(Cc3ccnc(OC)c3)c(C)nn2C(C)C)c1`, in that order: 31.5 nM and 298 nM.
As for `Cc1nn(C(C)C)c(Sc2cc(Cl)cc(Cl)c2)c1CSc1ccncc1`, the IC50 in the assay with HXB2-strain of HIV amounted to 34.1 nM; on HIV-1 RT, 292 nM.
Consider `Cc1nn(C(C)C)c(Sc2cc(Cl)cc(Cl)c2)c1Cc1ccncc1`, for which the values for the concentration for half-maximal inhibition (IC50) in the assay with HXB2-strain of HIV and on HIV-1 RT were 2.7 nM and 76 nM, respectively.
On to `Cc1cccc(Sc2c(Cc3ccncc3F)c(C)nn2C(C)C)c1`, for which the IC50 in the assay with HXB2-strain of HIV came out at 19 nM; on HIV-1 RT it was 480 nM.
As for `Cc1nn(-c2ccccc2)c(Sc2cc(Cl)cc(Cl)c2)c1Cc1ccncc1`, the half-inhibitory concentration (IC50) in the assay with HXB2-strain of HIV was 36 nM; at HIV-1 RT, 105 nM.
`Cc1nn(-c2ccccc2)c(Sc2cc(Cl)cc(Cl)c2)c1CCc1ccccc1`: the results for the IC50 in the assay on HXB2-strain of HIV and at HIV-1 RT were 592 nM and 3420 nM, respectively.
Take `Cc1nn(C(C)C)c(Sc2cccc(Br)c2)c1Cc1ccncc1F`: the IC50 with HXB2-strain of HIV amounted to 19 nM; at HIV-1 RT, 463 nM.
For `Cc1nn(C(C)C)c(Sc2cc(Cl)cc(Cl)c2)c1Cc1ccccc1`, in that order: 24 nM and 270 nM.
For the molecule `Cc1cc(C)cc(Sc2c(Cc3ccccn3)c(C)nn2C(C)C)c1`, the IC50 in the assay with HXB2-strain of HIV turned out to be 64 nM; on HIV-1 RT it was 950 nM.
For `Cc1cc(C)cc(Sc2c(Cc3ccncc3F)c(C)nn2C(C)C)c1`, in that order: 8.1 nM and 90 nM.
The corresponding values for `Cc1nn(C(C)C)c(Sc2cc(Cl)cc(Cl)c2)c1Cc1ccnc(Cl)c1` are 15 nM and 109 nM.
Consider `CCn1nc(C)c(Cc2ccncc2)c1Sc1cc(Cl)cc(Cl)c1`, for which the 50% inhibitory concentration (IC50) with HXB2-strain of HIV amounted to 9 nM; on HIV-1 RT, 84 nM.
Consider `CCn1nc(C)c(Cc2cncc(Br)c2)c1Sc1cc(Cl)cc(Cl)c1`, for which the half-maximal inhibitory concentration (IC50) with HXB2-strain of HIV stood at 124 nM; on HIV-1 RT, 398 nM.
On to `Cc1nn(C(C)C)c(Sc2cccc(Br)c2)c1Cc1ccncc1Cl`, for which the half-maximal inhibitory concentration (IC50) at HIV-1 RT was 5200 nM.
For `Cc1nn(C(C)C)c(Sc2cc(Cl)cc(Cl)c2)c1Cc1ccncc1Cl`, the half-maximal inhibitory concentration (IC50) was 51.7 nM in the assay on HXB2-strain of HIV and 177 nM on HIV-1 RT.
For `Cc1nn(C(C)C)c(Sc2cc(Cl)cc(Cl)c2)c1COc1cccnc1`, in that order: 110 nM and 313 nM.
Regarding `Cc1cccc(Sc2c(Cc3ccncc3Cl)c(C)nn2C(C)C)c1`, at HIV-1 RT, the half-maximal inhibitory concentration (IC50) amounted to 1080 nM.
Consider `Cc1nn(C(C)C)c(Sc2cc(Cl)cc(Cl)c2)c1COCc1ccncc1`, for which the figures for the IC50 in the assay with HXB2-strain of HIV and at HIV-1 RT were 3.6 nM and 112 nM, respectively.
For `Cc1cc(Cc2c(C)nn(C(C)C)c2Sc2cc(Cl)cc(Cl)c2)cc(Cl)n1`, in that order: 28 nM and 880 nM.
The corresponding values for `Cc1nn(C(C)C)c(Sc2cc(Cl)cc(Cl)c2)c1Cc1ccccn1` are 75 nM and 1070 nM.
For the molecule `Cc1nn(C(C)C)c(Sc2cc(Cl)cc(Cl)c2)c1Cc1ccncc1F`, the results for the 50% inhibitory concentration (IC50) in the assay on HXB2-strain of HIV and at HIV-1 RT were 11.1 nM and 373 nM, respectively.
With `Cc1nn(C(C)C)c(Sc2cc(Cl)cc(Cl)c2)c1Cc1ccncn1`, the IC50 in the assay on HXB2-strain of HIV turned out to be 13.5 nM; on HIV-1 RT, 456 nM.
The corresponding values for `Cc1nn(C(C)C)c(Sc2cc(Cl)cc(Cl)c2)c1Cc1ccc(C#N)cc1` are 11.9 nM and 176 nM.
For `Cc1nn(C(C)C)c(Sc2cc(Cl)cc(Cl)c2)c1COCc1ccccc1`, in that order: 100 nM and 349 nM.

Broadly, the IC50 is the concentration that gives 50% inhibition.
